Measured values reported in the supplement of paper PMC12205070.

What was measured:
Assay in all cases: normalised number of viable cells after treatment (fraction of control); higher = more viable cells (less drug effect)
[1] = system: P10 Relapse (T-ALL xenograft cells from relapse)
Protocol: (§1)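 T-ALL PDX-derived cells (initial diagnosis or relapse samples of individual patients) co-cultured on hTERT-immortalized bone marrow MSCs in 384-well plates were treated with Cytarabine, Venetoclax, S-63845, A1331852 or FX1 (0.1 nM to 10,000 nM) for 72 h.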

[2] = system: P1 Relapse (T-ALL xenograft cells from relapse)
Protocol: as §1

[3] = system: P3 Initial (T-ALL xenograft cells from diagnosis)
Protocol: as §1

[4] = system: P2 Initial (T-ALL xenograft cells from diagnosis)
Protocol: as §1

[5] = system: P8 Initial (T-ALL xenograft cells from diagnosis)
Protocol: as §1

[6] = system: P3 Relapse (T-ALL xenograft cells from relapse)
Protocol: as §1

[7] = system: P2 Relapse (T-ALL xenograft cells from relapse)
Protocol: as §1

[8] = system: P12 Relapse (T-ALL xenograft cells from relapse)
Protocol: as §1

[9] = system: P12 Initial (T-ALL xenograft cells from diagnosis)
Protocol: as §1

[10] = system: P6 Initial (T-ALL xenograft cells from diagnosis)
Protocol: as §1

[11] = system: P8 Relapse (T-ALL xenograft cells from relapse)
Protocol: as §1

[12] = system: P10 Initial (T-ALL xenograft cells from diagnosis)
Protocol: as §1

[13] = system: P6 Relapse (T-ALL xenograft cells from relapse)
Protocol: as §1

[14] = system: P1 Initial (T-ALL xenograft cells from diagnosis)
Protocol: as §1

Nc1ccn([C@@H]2O[C@H](CO)[C@@H](O)[C@@H]2O)c(=O)n1 [Cytarabine]
Details | normalised number of viable cells
[1], 0.998752 nM | 1.08
[1], 9.98752 nM | 1
[1], 99.8752 nM | 0.737
[1], 998.752 nM | 0.712
[1], 9987.52 nM | 0.679
[2], 0.125 nM | 0.84
[2], 1 nM | 0.683
[2], 12.5 nM | 0.426
[2], 100 nM | 0.354
[2], 1250 nM | 0.235
[2], 10000 nM | 0.224
[3], 0.998752 nM | 1.04
[3], 9.98752 nM | 0.855
[3], 99.8752 nM | 0.14
[3], 998.752 nM | 0.0925
[3], 9987.52 nM | 0.0805
[4], 0.998752 nM | 1.83
[4], 9.98752 nM | 1.97
[4], 99.8752 nM | 0.894
[4], 998.752 nM | 0.683
[4], 9987.52 nM | 0.631
[5], 0.998752 nM | 1.67
[5], 9.98752 nM | 1.54
[5], 99.8752 nM | 0.489
[5], 998.752 nM | 0.4715
[5], 9987.52 nM | 0.577
[6], 0.998752 nM | 1.14
[6], 9.98752 nM | 0.684
[6], 99.8752 nM | 0.464
[6], 998.752 nM | 0.306
[6], 9987.52 nM | 0.143
[7], 0.998752 nM | 0.981
[7], 9.98752 nM | 0.99
[7], 99.8752 nM | 0.973
[7], 998.752 nM | 0.804
[7], 9987.52 nM | 0.61
[8], 0.998752 nM | 4.13
[8], 9.98752 nM | 5.01
[8], 99.8752 nM | 1.49
[8], 998.752 nM | 0.76
[8], 9987.52 nM | 0.446
[9], 0.998752 nM | 1.33
[9], 9.98752 nM | 1.2
[9], 99.8752 nM | 0.327
[9], 998.752 nM | 0.313
[9], 9987.52 nM | 0.593
[10], 0.998752 nM | 0.95
[10], 9.98752 nM | 0.6575
[10], 99.8752 nM | 0.454
[10], 998.752 nM | 0.248
[10], 9987.52 nM | 0.239
[11], 0.998752 nM | 1.551
[11], 9.98752 nM | 1.57
[11], 99.8752 nM | 0.744
[11], 998.752 nM | 0.821
[11], 9987.52 nM | 0.599
[12], 0.998752 nM | 1.45
[12], 9.98752 nM | 1.4
[12], 99.8752 nM | 0.472
[12], 998.752 nM | 0.426
[12], 9987.52 nM | 0.427
[13], 0.998752 nM | 0.745
[13], 9.98752 nM | 1.28
[13], 99.8752 nM | 1.18
[13], 998.752 nM | 0.902
[13], 9987.52 nM | 0.852
[14], 0.125 nM | 0.988
[14], 1 nM | 0.83
[14], 12.5 nM | 0.396
[14], 100 nM | 0.245
[14], 1250 nM | 0.23
[14], 10000 nM | 0.0865

CC1(C)CCC(CN2CCN(c3ccc(C(=O)NS(=O)(=O)c4ccc(NCC5CCOCC5)c([N+](=O)[O-])c4)c(Oc4cnc5[nH]ccc5c4)c3)CC2)=C(c2ccc(Cl)cc2)C1 [Venetoclax]
Details | normalised number of viable cells
[1], 0.998752 nM | 0.866
[1], 9.98752 nM | 1.17
[1], 99.8752 nM | 0.717
[1], 998.752 nM | 0.313
[1], 9987.52 nM | 0.13
[2], 0.125 nM | 1.02
[2], 1 nM | 0.911
[2], 12.5 nM | 0.504
[2], 100 nM | 0.781
[2], 1250 nM | 0.352
[2], 10000 nM | 0.694
[3], 0.998752 nM | 0.948
[3], 9.98752 nM | 0.925
[3], 99.8752 nM | 0.814
[3], 998.752 nM | 0.821
[3], 9987.52 nM | 0.139
[4], 0.998752 nM | 1.58
[4], 9.98752 nM | 1.09
[4], 99.8752 nM | 0.725
[4], 998.752 nM | 0.56
[4], 9987.52 nM | 0.514
[5], 0.998752 nM | 2.58
[5], 9.98752 nM | 2.56
[5], 99.8752 nM | 2.09
[5], 998.752 nM | 1.89
[5], 9987.52 nM | 2.3
[6], 0.998752 nM | 1.18
[6], 9.98752 nM | 1.15
[6], 99.8752 nM | 1.104
[6], 998.752 nM | 0.922
[6], 9987.52 nM | 0.072
[7], 0.998752 nM | 1.16
[7], 9.98752 nM | 1.37
[7], 99.8752 nM | 1.19
[7], 998.752 nM | 0.933
[7], 9987.52 nM | 0.412
[8], 0.998752 nM | 5.7
[8], 9.98752 nM | 4.1
[8], 99.8752 nM | 4.2
[8], 998.752 nM | 4.43
[8], 9987.52 nM | 0.845
[9], 0.998752 nM | 1.15
[9], 9.98752 nM | 1.21
[9], 99.8752 nM | 0.923
[9], 998.752 nM | 0.978
[9], 9987.52 nM | 0.0715
[10], 0.998752 nM | 1.17
[10], 9.98752 nM | 0.743
[10], 99.8752 nM | 0.5415
[10], 998.752 nM | 0.355
[10], 9987.52 nM | 0.269
[11], 0.998752 nM | 1.21
[11], 9.98752 nM | 1.24
[11], 99.8752 nM | 1.02
[11], 998.752 nM | 0.744
[11], 9987.52 nM | 0.732
[12], 0.998752 nM | 1.39
[12], 9.98752 nM | 1.41
[12], 99.8752 nM | 0.954
[12], 998.752 nM | 0.665
[12], 9987.52 nM | 0.21
[13], 0.998752 nM | 1.31
[13], 9.98752 nM | 1.12
[13], 99.8752 nM | 0.554
[13], 998.752 nM | 0.584
[13], 9987.52 nM | 0.169
[14], 0.125 nM | 1
[14], 1 nM | 0.841
[14], 12.5 nM | 0.423
[14], 100 nM | 0.345
[14], 1250 nM | 0.259
[14], 10000 nM | 0.0865
